Data from ChEMBL document CHEMBL1201862, “PubChem BioAssay data set” (2004).
Activity calls are given as the source filed them.

Assays:
[1] = molecular target: Adenosylmethionine-8-amino-7-oxononanoate aminotransferase (Mycobacterium tuberculosis, UniProt P9WQ81); assay: Mycobacterium tuberculosis BioA enzyme inhibitor Measured in Biochemical System Using Plate Reader - 2163-02_Inhibitor_Dose_CherryPick_Activity.; format: functional, Mycobacterium tuberculosis UT205
Mu-type opioid receptor = Mu-type opioid receptor (Homo sapiens, UniProt P35372); format: functional, cell-based;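 also: U2OS cells with beta-arrestin recruitment to OPRM1 by beta-gal complementation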
[2] = molecular target: 5-hydroxytryptamine receptor 2A (Mus musculus, UniProt P35363); format: functional, cell-based;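 also: CHO-K1 cells with tagged receptor and beta-arrestin; agonist potency measured as compound-induced activation of the receptor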
Beta-galactosidase = Beta-galactosidase (Escherichia coli, UniProt Q8VNN2); assay: Dose response counterscreen for EBI2 assay utilizing the enzyme, b-galactosidase.; format: functional
[3] = tested on: Streptococcus sp. 'group A'; assay: Streptococcus pyogenes SK(-)GAS viability under kanamycin – luminescence, BacTiterGlo, confirmation, counter-screen for streptokinase expression inhibitor project, dose response (AID 1900); format: functional, organism-based
Streptokinase A = molecular target: T1, Streptokinase A (Streptococcus pyogenes serotype M1, UniProt P10520); assay: viability-normalized secreted streptokinase activity reduction – plasminogen activation absorbance, OD405, dose response (AID 1914); format: functional, Streptococcus pyogenes M1 GAS;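 also: secreted streptokinase activity via plasminogen activation per viability signal from cell pellet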
T1 sequence (P10520 whole entry): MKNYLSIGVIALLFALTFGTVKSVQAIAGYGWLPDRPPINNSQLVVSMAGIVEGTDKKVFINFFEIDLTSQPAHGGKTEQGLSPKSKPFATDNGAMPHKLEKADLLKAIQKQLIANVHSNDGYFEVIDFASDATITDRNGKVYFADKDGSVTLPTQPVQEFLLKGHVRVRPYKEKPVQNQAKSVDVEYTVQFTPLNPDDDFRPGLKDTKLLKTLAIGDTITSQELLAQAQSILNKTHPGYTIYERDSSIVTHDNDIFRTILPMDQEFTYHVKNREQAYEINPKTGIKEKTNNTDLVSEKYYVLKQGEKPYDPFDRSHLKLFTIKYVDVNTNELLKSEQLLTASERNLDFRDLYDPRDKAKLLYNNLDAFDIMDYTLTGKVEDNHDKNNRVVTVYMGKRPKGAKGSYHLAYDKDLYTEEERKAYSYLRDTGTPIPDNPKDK

Streptococcus = assay: GAS UMAA2166 growth inhibition – luminescence, BacTiterGlo, counter-screen for streptokinase expression inhibitor project, dose response (AID 1915); format: functional, organism-based;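 also: potency for reduction of bacterial viability or growth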
[4] = molecular target: Heat shock protein HSP 90-alpha (Homo sapiens, UniProt P07900); format: functional, organism-based
[5] = reduction of Shn3 3'UTR-driven luciferase in osteoblasts – cell-based, Clone20 osteoblasts, firefly luciferase, cherry-picked, dose response (AID 624132); format: functional;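 also: firefly luciferase luminescence from reporter carrying the Shn3 3'UTR in osteoblasts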

Mu-type opioid receptor, sequence (P35372 whole entry): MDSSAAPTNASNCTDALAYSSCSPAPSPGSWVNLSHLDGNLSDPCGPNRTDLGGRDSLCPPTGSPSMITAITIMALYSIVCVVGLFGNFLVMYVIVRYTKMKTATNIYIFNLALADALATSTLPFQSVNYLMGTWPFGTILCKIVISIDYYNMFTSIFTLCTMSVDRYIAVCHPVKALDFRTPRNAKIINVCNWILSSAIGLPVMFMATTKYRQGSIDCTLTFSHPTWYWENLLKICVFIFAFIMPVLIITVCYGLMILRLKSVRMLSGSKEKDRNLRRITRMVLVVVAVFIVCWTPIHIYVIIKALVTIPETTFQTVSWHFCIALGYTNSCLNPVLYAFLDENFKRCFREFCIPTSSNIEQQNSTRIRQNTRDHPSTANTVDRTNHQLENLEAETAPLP
5-hydroxytryptamine receptor 2A, sequence (P35363 whole entry): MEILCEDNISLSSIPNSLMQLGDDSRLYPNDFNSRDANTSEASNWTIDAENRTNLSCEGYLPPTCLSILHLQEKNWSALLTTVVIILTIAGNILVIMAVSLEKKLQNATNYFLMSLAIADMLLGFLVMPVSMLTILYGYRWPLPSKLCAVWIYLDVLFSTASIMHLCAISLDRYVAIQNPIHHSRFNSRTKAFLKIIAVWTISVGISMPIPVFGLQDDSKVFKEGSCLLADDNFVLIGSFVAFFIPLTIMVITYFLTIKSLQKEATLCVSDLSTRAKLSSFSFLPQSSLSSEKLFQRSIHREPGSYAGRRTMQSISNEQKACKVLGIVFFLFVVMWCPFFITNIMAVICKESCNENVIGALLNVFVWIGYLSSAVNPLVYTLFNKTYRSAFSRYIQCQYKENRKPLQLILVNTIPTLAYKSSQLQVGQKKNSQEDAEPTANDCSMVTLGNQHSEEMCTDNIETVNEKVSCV
Adenosylmethionine-8-amino-7-oxononanoate aminotransferase, sequence (P9WQ81 whole entry): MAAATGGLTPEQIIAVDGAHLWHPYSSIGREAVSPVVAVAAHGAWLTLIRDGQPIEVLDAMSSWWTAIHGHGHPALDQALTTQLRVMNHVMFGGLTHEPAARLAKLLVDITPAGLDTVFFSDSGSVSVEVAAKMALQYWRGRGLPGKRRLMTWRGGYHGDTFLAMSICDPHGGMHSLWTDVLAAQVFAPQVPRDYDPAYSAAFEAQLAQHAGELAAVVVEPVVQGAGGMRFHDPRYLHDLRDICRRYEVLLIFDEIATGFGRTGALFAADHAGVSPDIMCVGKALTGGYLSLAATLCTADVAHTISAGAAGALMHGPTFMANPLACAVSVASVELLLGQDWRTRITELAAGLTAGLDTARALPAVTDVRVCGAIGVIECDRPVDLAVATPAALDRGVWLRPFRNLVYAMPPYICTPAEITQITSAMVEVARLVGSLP
Beta-galactosidase, sequence (Q8VNN2 whole entry): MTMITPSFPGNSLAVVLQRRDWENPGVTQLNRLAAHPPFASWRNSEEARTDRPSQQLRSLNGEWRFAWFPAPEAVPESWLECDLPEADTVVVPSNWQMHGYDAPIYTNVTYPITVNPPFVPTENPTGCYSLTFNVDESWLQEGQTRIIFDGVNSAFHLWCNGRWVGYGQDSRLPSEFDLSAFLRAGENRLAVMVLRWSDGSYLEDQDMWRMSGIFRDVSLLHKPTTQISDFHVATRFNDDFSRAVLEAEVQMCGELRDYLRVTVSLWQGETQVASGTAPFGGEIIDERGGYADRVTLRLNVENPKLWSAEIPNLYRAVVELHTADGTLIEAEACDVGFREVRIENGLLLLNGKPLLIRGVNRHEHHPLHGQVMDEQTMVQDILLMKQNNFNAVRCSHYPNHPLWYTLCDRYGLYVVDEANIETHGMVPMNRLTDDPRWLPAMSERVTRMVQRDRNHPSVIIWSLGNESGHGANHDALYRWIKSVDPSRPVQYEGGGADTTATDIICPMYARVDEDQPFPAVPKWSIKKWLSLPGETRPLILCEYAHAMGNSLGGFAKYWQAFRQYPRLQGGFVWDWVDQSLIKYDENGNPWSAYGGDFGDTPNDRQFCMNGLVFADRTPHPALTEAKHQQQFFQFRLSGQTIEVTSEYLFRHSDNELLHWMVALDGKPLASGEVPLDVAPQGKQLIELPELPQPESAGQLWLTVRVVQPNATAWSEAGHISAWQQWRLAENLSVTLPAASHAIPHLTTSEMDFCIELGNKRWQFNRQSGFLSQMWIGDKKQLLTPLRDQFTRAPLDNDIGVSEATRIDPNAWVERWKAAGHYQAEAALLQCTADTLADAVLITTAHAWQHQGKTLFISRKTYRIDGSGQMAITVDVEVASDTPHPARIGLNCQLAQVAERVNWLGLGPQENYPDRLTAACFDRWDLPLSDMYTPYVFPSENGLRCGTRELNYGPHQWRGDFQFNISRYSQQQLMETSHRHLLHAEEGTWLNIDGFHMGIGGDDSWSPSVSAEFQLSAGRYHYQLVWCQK

SMILES | AC50 [1] | EC50 (Mu-type opioid receptor) | EC50 [2] | also measured
COC(=O)[C@@H]1[C@@H](CO)[C@@H]2Cn3c(ccc(-c4ccccc4)c3=O)[C@@H]2N1Cc1cccc(F)c1 | 4.33 µM (active) | – | – | –
CCC(=O)N1CC[C@@H]2[C@H]1c1cc(-c3cccc(F)c3)ccc1N(C)[C@@H]2CO | 2.44 µM (active) | – | – | –
O=C(NCC(c1ccco1)N1CCN(c2ccccc2F)CC1)C1CCCCC1 (configuration not stated) | – | 92.5 µM (inactive) | 76.1 µM (inactive) | –
CCOC(=O)C1=C(Nc2ccc(OC)cc2)S/C(=C\c2cc(OC)c(OC)c(OC)c2)C1=O | – | – | – | IC50 (Beta-galactosidase): > 80 µM (inactive)
COc1cccc(-c2nc(NC3CCCC3)c3ccccc3n2)c1O | – | 92.4 µM (inactive) | 7.62 µM (active) | EC50 [3]: 5.91 µM (active); EC50 (Streptokinase A): 78.1 µM (inconclusive); EC50 (Streptococcus): > 150 µM (not active); AC50 [4]: 3.8 µM (active); AC50 [5]: 25 µM (active)
